# Reference: ChEMBL document CHEMBL1135299, “Design, synthesis and biological activity of novel non-peptidyl endothelin converting enzyme inhibitors, 1-phenyl-tetrazole-formazan analogues” (Bioorg Med Chem Lett, 2002)
# pIC50: −log10 of the molar value.
# Biological target: T1, Endothelin-converting enzyme 1 (Rattus norvegicus) (UniProt P42893)
# T1 sequence (whole entry): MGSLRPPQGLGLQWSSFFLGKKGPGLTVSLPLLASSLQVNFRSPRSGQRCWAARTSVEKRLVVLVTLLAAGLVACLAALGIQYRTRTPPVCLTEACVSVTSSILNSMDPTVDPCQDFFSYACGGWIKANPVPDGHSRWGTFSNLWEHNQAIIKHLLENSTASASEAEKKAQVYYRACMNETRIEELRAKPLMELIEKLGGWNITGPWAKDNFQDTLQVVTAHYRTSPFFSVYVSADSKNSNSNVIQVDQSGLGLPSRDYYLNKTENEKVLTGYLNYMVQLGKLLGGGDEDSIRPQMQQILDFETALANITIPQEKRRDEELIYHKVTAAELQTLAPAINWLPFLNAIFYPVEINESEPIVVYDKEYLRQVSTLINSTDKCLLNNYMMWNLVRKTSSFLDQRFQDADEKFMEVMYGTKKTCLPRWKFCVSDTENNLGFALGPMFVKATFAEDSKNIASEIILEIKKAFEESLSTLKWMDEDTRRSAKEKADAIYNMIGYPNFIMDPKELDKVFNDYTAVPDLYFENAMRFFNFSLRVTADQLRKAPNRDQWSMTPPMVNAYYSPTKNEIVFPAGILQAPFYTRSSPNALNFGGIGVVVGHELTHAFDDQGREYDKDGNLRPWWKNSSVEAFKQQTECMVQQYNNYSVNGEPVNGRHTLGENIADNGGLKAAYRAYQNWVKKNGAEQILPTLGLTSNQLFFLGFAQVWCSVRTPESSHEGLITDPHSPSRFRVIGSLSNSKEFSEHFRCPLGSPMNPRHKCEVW
# Assay: Tested in vitro for percent inhibition of Endothelin-converting enzyme (ECE) of rat lung membrane at 10 uM
# Type: tissue-based
row,Structure (SMILES),inhibition
1,Clc1ccc(N/N=C(\N=N\c2nnnn2-c2ccccc2)c2ccccc2)cc1,37%

# Biological target: T2, Endothelin-converting enzyme 1 (Rattus norvegicus, UniProt P42893)
# T2 sequence (P42893 whole entry): T1 sequence (whole entry)
# Assay: Tested in vitro for inhibition of Endothelin-converting enzyme (ECE) of rat lung membrane
# Type: tissue-based
row,Structure (SMILES),pIC50
1,c1ccc(N/N=C(\N=N\c2nnnn2-c2ccccc2)c2ccccc2)cc1,5.00
2,c1ccc(C(=N/Nc2ccc(C3CCCCC3)cc2)/N=N/c2nnnn2-c2ccccc2)cc1,5.44
3,CC(C)c1ccc(N/N=C(\N=N\c2nnnn2-c2ccccc2)c2ccccc2)cc1,5.47
4,Cc1ccc(N/N=C(\N=N\c2nnnn2-c2ccccc2)c2ccccc2)cc1,5.08
5,Cc1nn(-c2ccccc2)c(NC(=O)NS(=O)(=O)c2ccc(Cl)cc2)c1C#N,7.38
6,CCc1ccc(N/N=C(\N=N\c2nnnn2-c2ccccc2)c2ccccc2)cc1,5.42
7,CCC(C)c1ccc(N/N=C(\N=N\c2nnnn2-c2ccccc2)c2ccccc2)cc1 (stereo not given),5.57
8,CCCc1ccc(N/N=C(\N=N\c2nnnn2-c2ccccc2)c2ccccc2)cc1,5.59
9,CC(C)(C)c1ccc(N/N=C(\N=N\c2nnnn2-c2ccccc2)c2ccccc2)cc1,5.42
